Assay: Fecal drug kinetics: BKI concentrations in pooled feces by LC-MS/MS
Assay type: in vivo, piglets
Description: Additionally, to determine exposure to BKI 1369 and its metabolites, BKI 1318 and BKI 1817, pooled fecal samples per group were collected before treatment (−24 h), 2, 24 and 48 h after treatment and at the end of the study (SD 29; experiment I). Approximately 1 g of feces was soaked overnight in 3 ml phosphate buffered saline (PBS, pH 7.4). The following day, 12 ml of acetonitrile containing 100 μM propanolol as an internal standard was added and the mixture was thoroughly vortexed and centrifuged at 1000×g for 30 min. Clear supernatant was then transferred to Eppendorf tubes and concentrated in a miVac® Duo Concentrator (SP Scientific, Pennsylvania, USA) at 35 °C. Control/blank samples spiked with known amounts of target analyte were processed in tandem to provide a standard curve. The concentrated samples were shipped to the University of Washington and were stored at −20 °C until analysis by liquid chromatography-tandem mass spectrometry (LC-MS/MS) to determine fecal pharmacokinetics. All LC-MS/MS analyses were carried out on a Waters Acquity UPLC coupled with a Xevo TQS Micro and analyzed using MassLynx software (Waters Corporation, Milford, MA, USA). Extraction and LC-MS/MS conditions are described in detail in the Supplementary File S1.
Tissue and feces from vehicle control treated piglets were used as blanks or standards. Calibration curves for BKI 1369, BKI 1318, and BKI 1817 were prepared by adding 2 μL BKI in dimethylsulfoxide (DMSO) to 18 μL tissue or feces controls to generate nominal concentrations of 0.004, 0.008, 0.02, 0.04, 0.08, 0.2, 0.4, 0.8, 2, 5, 10, and 20 μM. Calibration curves were generated separately for each tissue type and feces.
5 μL of tissue homogenate curves and samples were added to tubes that contained 95 μL of 80:20 acetonitrile: water. As an internal standard, propranolol was added to each sample to a final concentration of 20 nM. Samples were dried to completion using a miVac Duo Concentrator (SP Scientific, Pennsylvania, USA) at 35 °C. Sample processing for feces was similar but utilized a slightly different process to concentrate the sample as explained in the methods. Dried Samples were sealed and shipped to the University of Washington for LC-MS/MS analysis.

## CCOc1ccc2cc(-c3nn(CC4CCNCC4)c4ncnc(N)c34)ccc2n1 [BKI 1318]
Group A (20 mg BKI 1369/kg BW; 0 dpi), SD 2, −24 h (before treatment)
  Concentration in pooled fecal samples: 0 nM
Group A (20 mg BKI 1369/kg BW; 0 dpi), SD 3, 2 h post first-dose
  Concentration in pooled fecal samples: 0 nM
Group A (20 mg BKI 1369/kg BW; 0 dpi), SD 4, 24 h post first-dose
  Concentration in pooled fecal samples: 300 nM
Group A (20 mg BKI 1369/kg BW; 0 dpi), SD 5, 48 h post first-dose
  Concentration in pooled fecal samples: 400 nM
Group A (20 mg BKI 1369/kg BW; 0 dpi), SD 29, 624 h post first-dose
  Concentration in pooled fecal samples: 0 nM
Group A: single treatment 20 mg BKI 1369/kg on SD 3, pooled feces
  Cmax: 400 nM
Group A: single treatment 20 mg BKI 1369/kg on SD 3, pooled feces, post dose
  Fecal Tmax: 48 h
Group B (20 mg BKI 1369/kg BW; 2 dpi), SD 4, −24 h (before treatment)
  Concentration in pooled fecal samples: 0 nM
Group B (20 mg BKI 1369/kg BW; 2 dpi), SD 5, 2 h post first-dose
  Concentration in pooled fecal samples: 0 nM
Group B (20 mg BKI 1369/kg BW; 2 dpi), SD 6, 24 h post first-dose
  Concentration in pooled fecal samples: 0 nM
Group B (20 mg BKI 1369/kg BW; 2 dpi), SD 7, 48 h post first-dose
  Concentration in pooled fecal samples: 700 nM
Group B (20 mg BKI 1369/kg BW; 2 dpi), SD 29, 576 h post first-dose
  Concentration in pooled fecal samples: 0 nM
Group B: single treatment 20 mg BKI 1369/kg on SD 5, pooled feces
  Cmax: 700 nM
Group B: single treatment 20 mg BKI 1369/kg on SD 5, pooled feces, post-dose
  Fecal Tmax: 48 h
Group C (20 mg BKI 1369/kg BW; 2 and 4 dpi), SD 4, −24 h (before treatment)
  Concentration in pooled fecal samples: 0 nM
Group C (20 mg BKI 1369/kg BW; 2 and 4 dpi), SD 5, 2 h post first-dose
  Concentration in pooled fecal samples: 0 nM
Group C (20 mg BKI 1369/kg BW; 2 and 4 dpi), SD 6, 24 h post first-dose
  Concentration in pooled fecal samples: 300 nM
Group C (20 mg BKI 1369/kg BW; 2 and 4 dpi), SD 7, 48/2 h post 2nd dose
  Concentration in pooled fecal samples: 1900 nM
Group C (20 mg BKI 1369/kg BW; 2 and 4 dpi), SD 8, 72/24 h post 2nd dose
  Concentration in pooled fecal samples: 3600 nM
Group C (20 mg BKI 1369/kg BW; 2 and 4 dpi), SD 9, 96/48 h post 2nd dose
  Concentration in pooled fecal samples: 7000 nM
Group C (20 mg BKI 1369/kg BW; 2 and 4 dpi), SD 29, 576/528 h post 2nd dose
  Concentration in pooled fecal samples: 300 nM
Group C: 20 mg BKI 1369/kg on SD 5 and SD 7, pooled feces
  Cmax: 7000 nM
Group C: 20 mg BKI 1369/kg on SD 5 and SD 7, pooled feces, post first-dose
  Fecal Tmax: 96 h
After oral BKI 1369, piglets
  Excretion via the feces (in words): relatively low excretion via the feces

Reference: paper PMC7442133, “Reduced treatment frequencies with bumped kinase inhibitor 1369 are effective against porcine cystoisosporosis” (International Journal for Parasitology: Drugs and Drug …, 2020)
